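A five-concentration, 48-hour dose response in 96-well plates underlies each endpoint, interpolated linearly between surrounding concentrations. The concentration for 50% growth inhibition is given as GI50.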 Activity calls are given as the source filed them. No stated cut-off is given here; in the data, active = GI50 up to about 1.1 µM and inactive = higher.
Legend:
Assay in all cases: DTP human tumour cell line panel, 48 h
[1] = test system: SW-620
[2] = test system: MCF7
[3] = test system: OVCAR-8
[4] = test system: SN12C
[5] = test system: OVCAR-5
[6] = test system: LOX IMVI
[7] = test system: SNB-75
[8] = test system: 786-0
[9] = test system: M14
[10] = test system: COLO 205
[11] = test system: K562
[12] = test system: HOP-92
[13] = test system: SK-OV-3
[14] = test system: SK-MEL-28
[15] = test system: UO-31
[16] = test system: NCI-H522
[17] = test system: ACHN
[18] = test system: RPMI-8226
[19] = test system: OVCAR-4
[20] = test system: HL-60

| SMILES | GI50 [1] | GI50 [2] | GI50 [3] | GI50 [4] | GI50 [5] | GI50 [6] | GI50 [7] | GI50 [8] | GI50 [9] | GI50 [10] | GI50 [11] | GI50 [12] | GI50 [13] | GI50 [14] | GI50 [15] | GI50 [16] | GI50 [17] | GI50 [18] | GI50 [19] | GI50 [20] |
| --- | --- | --- | --- | --- | --- | --- | --- | --- | --- | --- | --- | --- | --- | --- | --- | --- | --- | --- | --- | --- |
| C=C1C[C@@H]2CC[C@@]34CC5O[C@H]6C(O[C@H]7CC[C@H](CC(=O)O[C@@H]8[C@@H](C)[C@@H]9O[C@@H]%10C[C@]%11(C[C@@H]%12O[C@]%13(C[C@H](C)[C@@H]%14O[C@@H]%15CC(C(COC(C)=O)OC(C)=O)O[C@@H]%15C[C@@H]%14O%13)C[C@H](C)[C@@H]%12O%11)O[C@@H]%10C[C@@H]9O[C@H]8CC8O[C@@H](CC[C@@H]1O2)C[C@@H](C)C8(O)CO)O[C@@H]7[C@@H]6O3)[C@H]5O4 (some centres not stated) | 0.6 µM (active) | 0.249 µM (active) | 0.668 µM (active) | > 0.838 µM (active) | > 1 µM (active) | 0.432 µM (active) | 0.336 µM (active) | 0.392 µM (active) | 0.587 µM (active) | 0.311 µM (active) | 0.513 µM (active) | > 1 µM (active) | > 1 µM (active) | > 1 µM (active) | > 0.805 µM (active) | 0.137 µM (active) | 0.708 µM (active) | 0.413 µM (active) | > 1 µM (active) | – |
| N=C(N)N/N=C/c1c(-c2ccc(Cl)c([N+](=O)[O-])c2)nc2sc(Cl)cn12 | 2.2 µM (inactive) | 2.39 µM (inactive) | 1.77 µM (inactive) | 2.32 µM (inactive) | 4.17 µM (inactive) | 2.44 µM (inactive) | – | 3.15 µM (inactive) | 2.79 µM (inactive) | 1.64 µM (inactive) | 0.617 µM (active) | 1.67 µM (inactive) | – | 1.94 µM (inactive) | 1.84 µM (inactive) | 1.51 µM (inactive) | 1.98 µM (inactive) | 2.99 µM (inactive) | 2.04 µM (inactive) | 3.45 µM (inactive) |
| O=C1CC(C(COCc2ccccc2)OCc2ccccc2)CC(=O)N1 (configuration not stated) | > 100 µM (inactive) | > 100 µM (inactive) | > 100 µM (inactive) | > 100 µM (inactive) | > 100 µM (inactive) | > 100 µM (inactive) | – | > 100 µM (inactive) | > 100 µM (inactive) | – | > 100 µM (inactive) | > 100 µM (inactive) | – | > 100 µM (inactive) | > 100 µM (inactive) | > 100 µM (inactive) | > 100 µM (inactive) | > 100 µM (inactive) | – | > 100 µM (inactive) |
| Cc1ccc(-c2cc(=O)c(=O)[nH][nH]2)cc1 | > 100 µM (inactive) | > 100 µM (inactive) | > 100 µM (inactive) | > 100 µM (inactive) | > 100 µM (inactive) | > 100 µM (inactive) | 18 µM (inactive) | > 100 µM (inactive) | > 100 µM (inactive) | > 100 µM (inactive) | > 100 µM (inactive) | > 100 µM (inactive) | > 100 µM (inactive) | > 100 µM (inactive) | > 100 µM (inactive) | 36.9 µM (inactive) | > 100 µM (inactive) | – | > 100 µM (inactive) | – |
| COC(=O)C(CCCCNC(=O)CNC(=O)OCc1ccccc1)NC(=O)C(CCCCNC(=O)CNC(=O)OCc1ccccc1)NC(=O)OCc1ccccc1 (configuration not stated) | > 100 µM (inactive) | 0.0805 µM (active) | 57.3 µM (inactive) | > 100 µM (inactive) | > 100 µM (inactive) | 87.9 µM (inactive) | 62.7 µM (inactive) | 25 µM (inactive) | > 100 µM (inactive) | – | > 100 µM (inactive) | – | – | 53.8 µM (inactive) | > 100 µM (inactive) | – | > 100 µM (inactive) | 20.4 µM (inactive) | 29.2 µM (inactive) | 83.2 µM (inactive) |
| COc1cc(C2c3cc4c(cc3[C@@H](Nc3ccc(F)cc3)C3COC[C@H]23)OCO4)cc(OC)c1O (some centres not stated) | 3.15 µM (inactive) | 1.1 µM (active) | 2.8 µM (inactive) | 2 µM (inactive) | 3.62 µM (inactive) | – | 2.77 µM (inactive) | 1.75 µM (inactive) | 2.22 µM (inactive) | 4.73 µM (inactive) | 4.19 µM (inactive) | – | 4.98 µM (inactive) | 5 µM (inactive) | 0.488 µM (active) | 3.22 µM (inactive) | 1.03 µM (active) | 1.49 µM (inactive) | 11.7 µM (inactive) | 0.533 µM (active) |
| CC(C)(C)[Si](C)(C)O[C@@H](C(=O)OC1C=CCCC1)[C@@H](NC(=O)c1ccccc1)c1ccccc1 (some centres not stated) | 26.2 µM (inactive) | 14.8 µM (inactive) | 56.4 µM (inactive) | 21 µM (inactive) | 24.4 µM (inactive) | 16.7 µM (inactive) | 27.7 µM (inactive) | 23.8 µM (inactive) | – | 25.3 µM (inactive) | 14 µM (inactive) | 8.99 µM (inactive) | 84.1 µM (inactive) | 34 µM (inactive) | 27.7 µM (inactive) | 16.6 µM (inactive) | 19.1 µM (inactive) | 4.79 µM (inactive) | 21.5 µM (inactive) | – |
| CC12C(=O)OC(=O)C1(C)C1C=CC2O1 (configuration not stated) | > 100 µM (inactive) | > 100 µM (inactive) | > 100 µM (inactive) | > 100 µM (inactive) | > 100 µM (inactive) | > 100 µM (inactive) | 14.9 µM (inactive) | > 100 µM (inactive) | 64.9 µM (inactive) | > 100 µM (inactive) | > 100 µM (inactive) | – | > 100 µM (inactive) | > 100 µM (inactive) | 62.1 µM (inactive) | > 100 µM (inactive) | > 100 µM (inactive) | > 100 µM (inactive) | – | > 100 µM (inactive) |
| COc1cc(/C=C2\C[C@H]3[C@@H]4CCc5cc(O)ccc5[C@H]4CC[C@]3(C)C2=O)cc(OC)c1OC | 16.7 µM (inactive) | 52.6 µM (inactive) | 15.5 µM (inactive) | 15.1 µM (inactive) | 17.7 µM (inactive) | 15.5 µM (inactive) | 12.2 µM (inactive) | 15.6 µM (inactive) | 16.8 µM (inactive) | 16.7 µM (inactive) | 12.3 µM (inactive) | – | 21.2 µM (inactive) | 11.8 µM (inactive) | 11.6 µM (inactive) | 1.83 µM (inactive) | 15.5 µM (inactive) | 14.4 µM (inactive) | 15.8 µM (inactive) | – |
| O=C1NC(=S)NC(=O)C1=Cc1ccc(-c2ccccc2)cc1 | > 100 µM (inactive) | 72.8 µM (inactive) | 49.8 µM (inactive) | > 100 µM (inactive) | > 100 µM (inactive) | 69.3 µM (inactive) | – | > 100 µM (inactive) | > 100 µM (inactive) | > 100 µM (inactive) | 31.6 µM (inactive) | > 100 µM (inactive) | > 100 µM (inactive) | – | > 100 µM (inactive) | – | > 100 µM (inactive) | 66.2 µM (inactive) | > 100 µM (inactive) | – |
| COc1cc2c(cc1OC)C1=C(C=O)c3ccc(OC)c(OC)c3C(O)N1CC2 (configuration not stated) | 37.2 µM (inactive) | 32.6 µM (inactive) | – | 33.2 µM (inactive) | 31.7 µM (inactive) | – | 4.75 µM (inactive) | 35.2 µM (inactive) | 21.9 µM (inactive) | 20.7 µM (inactive) | – | – | 65.8 µM (inactive) | 31 µM (inactive) | 37.5 µM (inactive) | 25.1 µM (inactive) | 28.2 µM (inactive) | 7.53 µM (inactive) | 40.3 µM (inactive) | 16.3 µM (inactive) |
| Cc1n[nH]c(=O)n1N=C(c1ccccc1)c1ccccc1 | > 100 µM (inactive) | > 100 µM (inactive) | > 100 µM (inactive) | > 100 µM (inactive) | > 100 µM (inactive) | > 100 µM (inactive) | – | > 100 µM (inactive) | > 100 µM (inactive) | > 100 µM (inactive) | > 100 µM (inactive) | > 100 µM (inactive) | – | > 100 µM (inactive) | > 100 µM (inactive) | > 100 µM (inactive) | > 100 µM (inactive) | > 100 µM (inactive) | > 100 µM (inactive) | – |
| CN(C)CC1CN=C(N)O1 (configuration not stated) | > 100 µM (inactive) | > 100 µM (inactive) | – | > 100 µM (inactive) | > 100 µM (inactive) | > 100 µM (inactive) | – | > 100 µM (inactive) | > 100 µM (inactive) | > 100 µM (inactive) | > 100 µM (inactive) | > 100 µM (inactive) | > 100 µM (inactive) | > 100 µM (inactive) | > 100 µM (inactive) | > 100 µM (inactive) | > 100 µM (inactive) | > 100 µM (inactive) | > 100 µM (inactive) | – |
| CC(C)(C)[Si](C)(C)OC1(CCc2ccccc2OS(=O)(=O)C(F)(F)F)CCCC=C1COCc1ccccc1 (configuration not stated) | 58.1 µM (inactive) | 19.1 µM (inactive) | – | – | – | 4.31 µM (inactive) | 8.61 µM (inactive) | > 100 µM (inactive) | – | 5.85 µM (inactive) | 5.71 µM (inactive) | – | > 100 µM (inactive) | > 59.6 µM (inactive) | – | 2.79 µM (inactive) | 35.4 µM (inactive) | 2.95 µM (inactive) | 6.05 µM (inactive) | 2.42 µM (inactive) |
| S=C1C=C(c2ccccc2)Sc2ccccc2N1 | – | > 100 µM (inactive) | > 100 µM (inactive) | > 100 µM (inactive) | > 100 µM (inactive) | > 100 µM (inactive) | 61.7 µM (inactive) | > 100 µM (inactive) | 57.9 µM (inactive) | > 100 µM (inactive) | > 100 µM (inactive) | – | > 100 µM (inactive) | > 100 µM (inactive) | > 100 µM (inactive) | 44.5 µM (inactive) | > 100 µM (inactive) | > 100 µM (inactive) | > 100 µM (inactive) | 53.8 µM (inactive) |

— ChEMBL document CHEMBL1201862, “PubChem BioAssay data set” (2004)
